Values quoted from earlier work as cited in patent US11517624B2, “Pharmaceutical composition for the parenteral administration of ultrashort-effective β-adrenoreceptor antagonists” (AOP ORPHAN PHARMACEUTICALS AG, priority 2007, dated 2022).

- elimination half-life t1/2: 1.5 h
Compound: COCCc1ccc(OCC(O)CNC(C)C)cc1 (stereo not shown) [metoprolol]
